Source: patent publication US20050261332A1, “Sulfonamides and uses thereof” (priority 2004, published 2005)

Molecular target: T1, GHS-R (Homo sapiens, UniProt Q92847)
T1 construct: expressed in transfected cells; host or cells: COS-7 cells
Experiment: GHS-R competition binding assay (Ki of GHS-R antagonizing compounds)
Method: One exemplary binding assay is as follows: GHS-R expressing COS-7 cells cultured at a density of 1×10^5 cells per well so that binding is assayed in the range of about 5-8 % binding of the radioactive ligand. For example, the cells can express an endogenous nucleic acid encoding GHS-R or an exogenous nucleic acid encoding GHS-R. Cells transfected with an exogenous nucleic acid encoding GHS-R can be used, e.g., two days, after transfection. Competition binding experiments are performed for 3 hours at 4° C. using 25 pM of ^125I-ghrelin in 0.5 ml of 50 mM HEPES buffer, pH 7.4, supplemented with 1 mM CaCl2, 5 mM MgCl2, and 0.1% (w/v) bovine serum albumin, 40 mg/ml bacitracin. Non-specific binding can be determined as the binding in the presence of […] of unlabeled ghrelin. Cells are washed twice in 0.5 ml of ice-cold buffer and then lysed with 0.5-1 ml of lysis buffer (8 M Urea, 2% NP40 in 3 M acetic acid). After washing and lysis, the bound radioactivity is counted. Assays can be run in duplicate or triplicate, e.g., to provide statistical power.
Values of the dissociation and inhibition constants (Kd and Ki) can be estimated from competition binding experiments using the equation: Kd=IC50-L and Ki=IC50/(1+L/Kd), where L is the concentration of radioactive ligand. Bmax values can be estimated from competition binding experiments using the equation Bmax=B0 IC50/[ligand], where B0 is the specifically bound radioligand.

T1 sequence (Q92847 whole entry, species assumed): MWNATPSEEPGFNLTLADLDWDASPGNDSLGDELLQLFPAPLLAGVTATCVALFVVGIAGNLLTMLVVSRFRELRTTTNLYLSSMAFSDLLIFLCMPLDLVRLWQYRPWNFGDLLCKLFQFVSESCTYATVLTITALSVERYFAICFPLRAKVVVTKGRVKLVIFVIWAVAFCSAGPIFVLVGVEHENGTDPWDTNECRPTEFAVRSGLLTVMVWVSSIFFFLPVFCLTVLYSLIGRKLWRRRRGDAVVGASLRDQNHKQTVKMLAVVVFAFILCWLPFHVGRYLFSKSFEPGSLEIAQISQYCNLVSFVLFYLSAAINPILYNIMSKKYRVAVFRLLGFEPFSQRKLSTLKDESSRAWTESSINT

SMILES	Ki
CCN(CC)CCCS(=O)(=O)N[C@H](COCc1ccccc1)C(=O)NCc1ccc(-c2ccccc2-c2nn[nH]n2)cc1 [Compound 156, (R)-3-Benzyloxy-2-(3-diethylamino-propane-1-sulfonylamino)-N-[2′-(2H-tetrazol-5-yl)-biphenyl-4-ylmethyl]-propionamide]	100 to 1000 nM
CN([C@H](COCc1ccccc1)C(=O)N1CCC2(CC1)CN(S(C)(=O)=O)c1ccccc12)S(=O)(=O)CCCCl [Compound 157, (R)-N-(3-(benzyloxy)-1-(1-(methylsulfonyl)spiro[indoline-3,4′-piperidine]-1′-yl)-1-oxopropan-2-yl)-3-chloro-N-methylpropane-1-sulfonamide]	100 to 1000 nM
CCN(CC)CCCS(=O)(=O)N[C@H](COCc1ccccc1)C(=O)NCc1ccc(-c2ccccc2C#N)cc1 [Compound 158, (R)-3-Benzyloxy-N-(2′-cyano-biphenyl-4-ylmethyl)-2-(3-diethylamino-propane-1-sulfonylamino)-propionamide]	< 100 nM
COCCCS(=O)(=O)N[C@H](COCc1ccccc1)C(=O)N1CCC2(CC1)CN(S(C)(=O)=O)c1ccccc12 [Compound 159, (R)-N-(3-(benzyloxy)-1-(1-(methylsulfonyl)spiro[indoline-3,4′-piperidine]-1′-yl)-1-oxopropan-2-yl)-3-methoxypropane-1-sulfonamide]	100 to 1000 nM
CCN(CC)CCCS(=O)(=O)N[C@H](COCc1ccccc1)C(=O)NCc1ccc(-c2ccccc2-c2noc(=S)[nH]2)cc1 [Compound 162, (R)-3-Benzyloxy-2-(3-diethylamino-propane-1-sulfonylamino)-N-[2′-(5-thioxo-4,5-dihydro-[1,2,4]oxadiazol-3-yl)-biphenyl-4-ylmethyl]-propionamide]	< 100 nM
CCN(CC)CCCS(=O)(=O)N[C@H](COCc1ccccc1)C(=O)N1CCC2(C=Cc3ccccc32)CC1 [Compound 165, (R)-N-(3-(benzyloxy)-1-oxo-1-(spiro[indene-1,4′-piperidine]-1′-yl)propan-2-yl)-3-(diethylamino)propane-1-sulfonamide]	< 100 nM
CCN(CC)CCCS(=O)(=O)N[C@H](CCc1ccccc1)C(=O)c1ccc(-c2ccccc2NC(=O)OC(C)(C)C)cc1 [Compound 167, (R)-tert-butyl 4′-(2-(3-(diethylamino)propylsulfonamido)-4-phenylbutanoyl)biphenyl-2-ylcarbamate]	100 to 1000 nM
CCN(CC)CCCS(=O)(=O)N[C@H](CCc1ccccc1)C(=O)NCc1ccc(-c2ccccc2CNC(C)=O)cc1 [Compound 170, (R)-N-((2′-(acetamidomethyl)biphenyl-4-yl)methyl)-2-(3-(diethylamino)propylsulfonamido)-4-phenylbutanamide]	100 to 1000 nM
CCNC(=O)Nc1ccccc1-c1ccc(C(=O)[C@@H](CCc2ccccc2)NS(=O)(=O)CCCN(CC)CC)cc1 [Compound 172, (R)-3-(diethylamino)-N-(1-(2′-(3-ethylureido)biphenyl-4-yl)-1-oxo-4-phenylbutan-2-yl)propane-1-sulfonamide]	100 to 1000 nM
CCN(CC)CCCS(=O)(=O)N[C@H](CCc1ccccc1)C(=O)c1ccc(-c2ccccc2C(N)=O)cc1 [Compound 174, (R)-4′-(2-(3-(diethylamino)propylsulfonamido)-4-phenylbutanoyl)biphenyl-2-carboxamide]	100 to 1000 nM
CCNC(=O)Nc1ccccc1-c1ccc(C(=O)[C@@H](COCc2ccccc2)NS(=O)(=O)CCCN(CC)CC)cc1 [Compound 175, (R)-N-(3-(benzyloxy)-1-(2′-(3-ethylureido)biphenyl-4-yl)-1-oxopropan-2-yl)-3-(diethylamino)propane-1-sulfonamide]	100 to 1000 nM

Results, then the compound that gave them:

Ki	SMILES
100 to 1000 nM	CCN(CC)CCCS(=O)(=O)N[C@H](COCc1ccccc1)C(=O)NCc1ccc(-c2ccccc2C(N)=O)cc1 [Compound 154, (R)-4′-{[3-Benzyloxy-2-(3-diethylamino-propane-1-sulfonylamino)-propionylamino]-methyl}-biphenyl-2-carboxylic acid amide]
100 to 1000 nM	CCN(CC)CCCS(=O)(=O)N[C@H](COCc1ccccc1)C(=O)NCc1ccc(-c2ccccc2-c2nnn(C(C)(C)C)n2)cc1 [Compound 155, (R)-3-Benzyloxy-N-[2′-(2-tert-butyl-2H-tetrazol-5-yl)-biphenyl-4-ylmethyl]-2-(3-diethylamino-propane-1-sulfonylamino)-propionamide]
< 100 nM	CCN(CC)CCCS(=O)(=O)N(C)[C@H](COCc1ccccc1)C(=O)N1CCC2(CC1)CN(S(C)(=O)=O)c1ccccc12 [Compound 160, (R)-N-(3-(benzyloxy)-1-(1-(methylsulfonyl)spiro[indoline-3,4′-piperidine]-1′-yl)-1-oxopropan-2-yl)-3-(diethylamino)-N-methylpropane-1-sulfonamide]
100 to 1000 nM	CCN(CC)CCCS(=O)(=O)N[C@H](CCc1ccccc1)C(=O)NCc1ccc(-c2ccccc2-c2nn[nH]n2)cc1 [Compound 161, (R)-N-((2′-(2H-tetrazol-5-yl)biphenyl-4-yl)methyl)-2-(3-(diethylamino)propylsulfonamido)-4-phenylbutanamide]
< 100 nM	CCN(CC)CCCS(=O)(=O)N[C@H](CCc1ccccc1)C(=O)N1CCC2(CC1)CN(S(C)(=O)=O)c1ccccc12 [Compound 163, (R)-3-(diethylamino)-N-(1-(1-(methylsulfonyl)spiro[indoline-3,4′-piperidine]-1′-yl)-1-oxo-4-phenylbutan-2-yl)propane-1-sulfonamide]
100 to 1000 nM	CCN(CC)CCCS(=O)(=O)N[C@H](COCc1ccccc1)C(=O)NCc1ccc(-c2ccccc2-c2noc(=O)[nH]2)cc1 [Compound 164, (R)-3-Benzyloxy-2-(3-diethylamino-propane-1-sulfonylamino)-N-[2′-(5-oxo-4,5-dihydro-[1,2,4]oxadiazol-3-yl)-biphenyl-4-ylmethyl]-propionamide]
> 1000 nM	CCN(CC)CCCS(=O)(=O)N[C@H](COCc1ccccc1)C(=O)c1ccc(-c2ccccc2NC(=O)OC(C)(C)C)cc1 [Compound 166, (R)-{4′-[3-Benzyloxy-2-(3-diethylamino-propane-1-sulfonylamino)-propionyl]-biphenyl-2-yl}-carbamic acid tert-butyl ester]
< 100 nM	CCN(CC)CCCS(=O)(=O)N[C@H](CCc1ccccc1)C(=O)c1ccc(-c2ccccc2CO)cc1 [Compound 168, (R)-3-(diethylamino)-N-(1-(2′-(hydroxymethyl)biphenyl-4-yl)-1-oxo-4-phenylbutan-2-yl)propane-1-sulfonamide]
< 100 nM	CCN(CC)CCCS(=O)(=O)N[C@H](CCc1ccccc1)C(=O)c1ccc(-c2ccccc2N)cc1 [Compound 169]
100 to 1000 nM	CCN(CC)CCCS(=O)(=O)N[C@H](CCc1ccccc1)C(=O)c1ccc(-c2ccccc2NC(=O)NC)cc1 [Compound 171, (R)-3-(diethylamino)-N-(1-(2′-(3-methylureido)biphenyl-4-yl)-1-oxo-4-phenylbutan-2-yl)propane-1-sulfonamide]
< 100 nM	CCN(CC)CCCS(=O)(=O)N[C@H](CCc1ccccc1)C(=O)c1ccc(-c2ccccc2COC(=O)NC)cc1 [Compound 173, (R)-(4′-(2-(3-(diethylamino)propylsulfonamido)-4-phenylbutanoyl)biphenyl-2-yl)methyl methylcarbamate]
